Consider 17 compounds from patent US8808742B2, “Compositions and methods for preparing and using same” (Ardea Biosciences, Inc., priority 2008, dated 2014).

Where two headings read alike, the source gives them in different places.

For one series, the system named is A375 melanoma tumors. Nature of the series: A375 melanoma xenograft, tumor growth inhibition / delay. It is filed as in vivo, nu/nu mice. As for the experimental part: (§1) Human tumors were implanted in nu/nu mice. Compound no. 1021 was administered orally for 14 days once tumors were approximately 100 mm^3 in size. Tumor growth inhibition (TGI) was determined after 14 days of treatment as the reduction in the size of tumors in treated groups versus vehicle controls. The time to endpoint (TTE) was calculated as the time for the tumor to reach the specified endpoint volume or the last day of the study, whichever came first. Treatment outcome was determined from percent tumor growth delay (% TGD), defined as the percent increase in median TTE of treated versus vehicle-treated control mice. Animals were also monitored for regression responses. Levels of pERK in tumors and brain were determined by Western blots and correlated with plasma levels of Compound no. […] A number of tumor models were evaluated with different doses and dosing regimens. […] The effect of different dosing regimens was evaluated in A375 xenografts. […]
(§2) Tumor Growth Inhibition for the groups treated with 25 mg/kg Compound no. 1021 were calculated for the indicated tumor xenografts. Tumor Growth Inhibition was measured at the end of once daily dosing for 14 days and calculated according to: […]
Female nu/nu mice were implanted with A375 tumor cells, which were allowed to grow to 100-200 mm^3. […] Tumor Growth Inhibition was measured at the end of once daily dosing for 14 days and calculated according to: […]

Series [1] deals with Colo205 colon cancer tumors. Kind of series: Colo205 colon tumor xenograft, tumor growth inhibition / delay. It is filed as in vivo, nu/nu mice. As for the experimental part:
(§3) Human tumors were implanted in nu/nu mice. Compound no. 1021 was administered orally for 14 days once tumors were approximately 100 mm^3 in size. Tumor growth inhibition (TGI) was determined after 14 days of treatment as the reduction in the size of tumors in treated groups versus vehicle controls. The time to endpoint (TTE) was calculated as the time for the tumor to reach the specified endpoint volume or the last day of the study, whichever came first. Treatment outcome was determined from percent tumor growth delay (% TGD), defined as the percent increase in median TTE of treated versus vehicle-treated control mice. Animals were also monitored for regression responses. Levels of pERK in tumors and brain were determined by Western blots and correlated with plasma levels of Compound no. 1021 for the pharmacodynamic/pharmacokinetic study. A number of tumor models were evaluated with different doses and dosing regimens. […] The effect of different dosing regimens was evaluated in A375 xenografts. Although 100 mg/kg Compound no. […] 1021. […]
as §2

A further series concerns HT29 colon cancer tumors. Kind of series: HT29 colon tumor xenograft, tumor growth inhibition. It is filed as in vivo, nu/nu mice. The note with it: oral 25 mg/kg QD. As for the experimental part:
as §3, §2

The subject of another series is A431 epidermoid tumors. Kind of series: A431 epidermoid tumor xenograft, tumor growth inhibition / delay. It is filed as in vivo, nu/nu mice. The method, then:
as §3, §2

A short description of series [2]: Plasma concentrations in A375 xenograft mice, QD vs BID. The conditions noted are these: oral. It is filed as in vivo, Female nu/nu mice.
Series [3] concerns MEK (pERK levels) in Colo205 tumors. Nature of the series: MEK inhibition (pERK Western blot) in Colo205 xenograft tumors vs plasma concentration. In kind it is in vivo, Female nu/nu mice. The note with it: Colo205 xenografts, pharmacodynamic/pharmacokinetic study. As for the experimental part: as §1
(§4) Female nu/nu mice implanted with Colo205 tumor cells were given a single dose of vehicle or Compound no. […] Compound levels were determined in plasma samples and pERK levels were determined in tumor and brain samples collected at 2, 6, 12, and 24 hr post-dose. The pERK levels from Western blots were quantified using the LI-COR Odyssey, normalized to total ERK levels and compared to vehicle-treated levels to determine % MEK inhibition. […]
(A western blot detects proteins with antibodies after separation by electrophoresis.)

Series [4] concerns brain MEK activity (pERK levels). Nature of the series: Inhibition of brain MEK activity (pERK Western blot) vs plasma concentration. It is filed as in vivo, Female nu/nu mice. The note with it: Colo205 xenograft mice, pharmacodynamic/pharmacokinetic study. As for the experimental part: as §1, §4
The nature of series [5]: Single-dose capsule administration in human cancer patients, concentration-time profiles. The note with it: in vivo, oral, capsules of example 95A. The method, then:
Administration of the capsules described in example 95A in Human Cancer Patients.Human cancer patients were administered a single dose of the 1 mg or 10 mg capsule composition described above in example 95A. For a 2 mg dose, patients were given 2×1 mg capsules; for a 4 mg dose, patients were given 4×1 mg capsules; for a 6 mg dose, patients were given 6×1 mg capsules; for a 10 mg dose, patients were given 1×10 mg capsule; for a 20 mg dose, patients were given 2×10 mg capsules.
The concentration-time profiles were monitored and are shown in FIG. 4 and in the table below: […]

For series [6], the system named is phosphorylated ERK in MDA-MB-231 breast cancer cells. Kind of series: Western blotting for phosphorylated ERK in MDA-MB-231 cells (EC50 data). It is filed as cell-based. The conditions noted are these: Homo sapiens, 0.5 h, 30 min compound, EGF stimulation, read-out: MDA pERK ELISA EC50. The method, then: Effects of compounds in the cell were determined by Western blotting for phosphorylated ERK. MDA-MB-231 breast cancer cells were plated in a 48 well plate at 20,000 cells per well and grown in a 37° humidified CO2 incubator. The following day, the growth media (DMEM+10% fetal bovine serum) was removed and replaced with starve media (DMEM+0.1% fetal bovine serum). Cells were incubated in the starve media for sixteen hours and then treated with a range of compound concentrations for thirty minutes. After incubation with compound, cells were stimulated with 100 ng/mlEGF for five minutes. The cells were then lysed and analyzed by Western blot using a monoclonal antibody raised to phosphorylated ERK. The signal was amplified using a secondary antibody conjugated to a near-IR dye and detected on a Licor Odyssey scanner.

Where [7] appears, read: column 2, no head, 2nd regimen of b975: 25 mg/kg BID.

For orientation: Cmax means the highest concentration seen after dosing. Turning to `COc1cc(F)c(F)c(Nc2ccc(I)cc2F)c1NS(=O)(=O)C1(C[C@H](O)CO)CC1` [Compound no. 1021], the “% TGD, significance” value (with A375 melanoma tumors (25 or 50 mg/kg QD); in [1] (25 or 50 mg/kg QD); in the series with A431 epidermoid tumors (25 or 50 mg/kg QD)) was “statistically significant” each time. For the same compound, the “TGI, significance” value (with A375 melanoma tumors (oral 25 mg/kg QD); in series [1] (oral 25 mg/kg QD); in the series with HT29 colon cancer tumors; in the series with A431 epidermoid tumors (oral 25 mg/kg QD)) was “Statistically significant” each time. In addition, the “Cmin Free Fraction” value in series [2] (column 1, no head, 1st regimen of b975: 50 mg/kg QD) was determined as 0.117 ng/mL; in series [2] (setting [7]) it was 2.48 ng/mL; in series [2] (column 3, no head, 3rd regimen of b975: printed 50 mg/kg QD), 0.059 ng/mL; in series [2] (column 4, no head, 4th regimen of b975: 12.5 mg/kg BID), 0.986 ng/mL. The same compound showed a Cmax in [2] (setting [7]) of 10200 ng/mL. Further, the “pERK formation in tumors” value in series [3] is recorded as “inhibition of pERK formation”. For the same compound, the “pERK inhibition in brain” value in series [4] is recorded as “minimal inhibition”. Besides, the concentration at 12 h in series [5] (2 mg, Dose 2 mg, Day 1, read-out: C12 hr) stood at 0.0378 ng/mL; in series [5] (2 mg, Dose 2 mg, Day 35, read-out: C12 hr), 0.0756 ng/mL; in series [5] (4 mg, Dose 4 mg, Day 1, read-out: C12 hr), 0.134 ng/mL; in [5] (4 mg, Dose 4 mg, Day 35, read-out: C12 hr), 0.31 ng/mL; in series [5] (10 mg, Dose 10 mg, Day 35, read-out: C12 hr), 1.01 ng/mL; in [5] (20 mg, Dose 20 mg, Day 35, read-out: C12 hr), 2.19 ng/mL.
Usually EC50 stands for the midpoint of the concentration-response curve. With `O=S(=O)(Nc1ccc(F)c(F)c1Nc1ccc(-c2cn[nH]c2)cc1F)C1CC1` [compound 0497618], the EC50 in series [6] was more than 200 nM.
Still for that read-out and setting: with `Cn1cc(-c2ccc(Nc3c(NS(=O)(=O)C4CC4)ccc(F)c3F)c(F)c2)cn1` [compound 0497620] the figure was more than 200 nM; with `O=S(=O)(Nc1ccc(F)c(F)c1Nc1ccc(-c2cc[nH]n2)cc1F)C1CC1` [compound 0497654], 100 to 200 nM; with `O=S(=O)(Nc1ccc(F)c(F)c1Nc1ccc(-c2ccncc2)cc1F)C1CC1` [compound 0497688], more than 200 nM.
The same measure, in the same setting: with `O=S(=O)(Nc1ccc(F)c(F)c1Nc1ccc(-c2cccnc2)cc1F)C1CC1` [compound 0497689] the figure was more than 200 nM; with `O=S(=O)(Nc1ccc(F)c(F)c1Nc1ccc(-c2ccccc2)cc1F)C1CC1` [compound 0497692], more than 200 nM.
As to `CC(=O)c1cccc(-c2ccc(Nc3c(NS(=O)(=O)C4CC4)ccc(F)c3F)c(F)c2)c1` [compound 0499266], the EC50 in series [6] is more than 200 nM.
For `CS(=O)(=O)Nc1ccc(-c2ccc(Nc3c(NS(=O)(=O)C4CC4)ccc(F)c3F)c(F)c2)cc1` [compound 0499271], the EC50 in series [6] was more than 200 nM.
Regarding `O=S(=O)(Nc1ccc(F)c(F)c1Nc1ccc(I)cc1F)c1ccc(-c2nsc(Cl)n2)s1` [compound 0530701], the EC50 in series [6] lay within 100 to 200 nM.
On the same count and under the same terms, next, `O=S(=O)(Nc1ccc(F)c(F)c1Nc1ccc(I)cc1F)C1CCNCC1` [compound 0561599]: 15 to 100 nM; `COC(=O)c1ccc(S(=O)(=O)Nc2ccc(F)c(F)c2Nc2ccc(I)cc2F)n1C` [compound 0561608]: 15 to 100 nM.
On the same count and under the same terms, next, `COC(=O)c1sccc1S(=O)(=O)Nc1ccc(F)c(F)c1Nc1ccc(I)cc1F` [compound 0620926]: more than 200 nM; `CNCCS(=O)(=O)Nc1ccc(F)c(F)c1Nc1ccc(I)cc1F` [compound 0621002]: 15 to 100 nM; `CN(C)CCNCCS(=O)(=O)Nc1ccc(F)c(F)c1Nc1ccc(I)cc1F` [compound 0621016]: 15 to 100 nM.
With `Cn1cc(S(=O)(=O)Nc2ccc(F)c(F)c2Nc2ccc(I)cc2F)c(C(F)(F)F)n1` [compound 0621026], in series [6], the EC50 fell in the range of 100 to 200 nM.
Take `CCN(C)CCS(=O)(=O)Nc1ccc(F)c(F)c1Nc1ccc(I)cc1F` [compound 0621029]: in [6], the EC50 lay within 100 to 200 nM.
